According to patent publication US20240382499A1, “INDUCERS OF SENESCENCE, IN COMBINATION WITH A SELECTIVE DEATH RECEPTOR 5 (DR5) AGONIST, FOR USE IN A METHOD OF TREATING CANCER” (Stichting Het Nederlands Kanker Instituut-Antoni van …, priority 2021, published 2024):

Assays:
[1] = tested on: Alisertib induced senescent and proliferating A549, H2030, H358, HCT116, MDA-MB-231 and MCF-7 cells; assay: Viability of alisertib-induced senescent versus proliferating cancer cell line panel (CellTiter-Blue dose response, Incucyte, colony formation); format: cell-based
Procedure: FIG. 2: (A) Western blot analysis of DR4, DR5, cFLIP in A549 cells treated with different senescence inducers for 1 week. VINC served as loading control. (B) A549 cells were firstly treated with 0.5 μM alisertib for 7 days to induce senescence. Afterwards, the senescent cells were suspended from alisertib, re-seeded in a 96-well plate then switched to 200 ng/ml recombinant Lz-TRAIL. The growth curves were measured by Incucyte cell proliferation assay. (C) Alisertib induced senescent and proliferating A549, H2030, H358, HCT116, MDA-MB-231 and MCF-7 cells were seeded into a 384-well plate and treated with Lz-TRAIL for 120 hrs. Cell viability were measured using CellTiter-Blue to generate dose response curve. (D) Senescence associated beta-galactosidase (SA-β-gal) staining in a cell line panel after treated with 0.5 μM alisertib for one week. (E) Cell viability […] was assessed by colony formation assay in the cell line panel. The cells were firstly treated with 0.5 μM alisertib for 7 days to induce senescence. […]
FIG. 3: (A) Human NF-kB pathway protein array analysis on the senescent A549 cells generated with 0.5 μM alisertib for 7 days. […] (C) Cell viability was assessed by colony formation assay in the A549 cells lentiviral shRNAs against DR4 or DR5. […] Cell viability were measured using CellTiter-Blue to generate dose response curve.

[2] = tested on: proliferating and senescent A549 and Hep1 cells; assay: Colony formation of proliferating and therapy-induced senescent A549 and Hep1 cells with NEO2734 and conatumumab; format: cell-based
Procedure: FIG. 8: Cell viability was assessed by colony formation assay using low doses of NEO2734 and conatumab. (A) Cell viability was assessed by a colony formation assay using low dose 0.25 μM of NEO2734 and 0.125 μg/ml conatumumab on Hep1 cells made senescent by one-week treatment of 0.5 μM alisertib, 1 μM barasertib, 50 nM CFI-400945 or 2 μM Etoposide. (B) Colony formation using low dose 0.25 μM of NEO2734 and 0.125 μg/ml conatumumab on Hep1, 0.25 μM of NEO2734 and 1 μg/ml conatumumab on A549 cells made senescent by one-week treatment of different senescence inducers (0.5 μM PF-06873600, 100 nM doxorubicin, 1 μM TAS-119 or combination of 5 nM trametinib plus 0.5 μM palbociclib.
Cells were treated with 0.5 μM alisertib for 7 days to induce senescence. These cells were seeded into 12 well plates. After 24 hours, the cells were treated with 0.5 μM NEO 2734 and indicated doses of conatumumab for 96 hours. Cells were fixed with 4% paraformaldehyde after 96 hours of drug treatment. The plates were stained with 2 mL 0.5% (w/v) crystal violet in H2O and photographed. Further, colony formation was investigated using 0.25 μM of NEO2734 and 0.125 μg/ml conatumumab on Hep1 cells made senescent by one-week treatment of 0.5 μM alisertib, 1 μM barasertib, 50 nM CFI-400945 or 2 μM Etoposide. Furthermore, colony formation was investigated using 0.25 μM of NEO2734 and 1 μg/ml conatumumab on A549 cells made senescent by one-week treatment of different senescence inducers, namely 0.5 μM PF-06873600, 100 nM doxorubicin or combination of 5 nM trametinib plus 0.5 μM palbociclib. Doxorubicin, PF-06873600, palbociclib and trametinib were purchased from Selleckchem (Houston, TX, USA).

[3] = tested on: PC9, TFK, EGI and Hep 1 cancer cells, and BJ and Rpe1 primary cells; assay: Dose-response curves (cell titer blue) for NEO2734 in the presence of conatumumab; format: cell-based, human; details: 0.5 microgram/ml conatumumab, 96 hours
Text: FIG. 6: (A) Dose-response curves determined by cell viability using cell titer blue for NEO2734 in the presence of 0.5 microgram/ml conatumumab. Shown are dose response curves for PC9, TFK, EGI and Hep 1 cancer cells, and BJ and Rpe1 primary cells. (B) RNA sequencing results.
PC9 human lung cancer cells, Panc1 human pancreatic cancer cell line of ductal cell origin, Hep3B human epithelial hepatoma cells, H1975 human epithelial lung cancer cells, TFK bile duct cancer cells, EGI bile duct cancer cells, BJ human foreskin fibroblast cells and Rpe1 human retina pigmented epithelial cells were obtained from ATCC.
Cells were seeded into 384 well plates. Drugs were added after 24 hours.
To validate this finding, a BRD2 inhibitor, NEO2734, was used to combine with a DR5 activation antibody (conatumumab) and to test the combination in multiple cancer models, including a pancreatic cancer line of ductal cell origin Panc1, two epithelial hepatoma cell lines Hep3B and Hep1, two bile duct cancer cell lines TFK and EGI, two epithelial cancer lines PC9 and H1975. In addition, two primary cell lines BJ and Rpe1 were used to determine whether this drug combination would be less harmful to healthy cells.

[4] = tested on: cFLIP (CFLAR); assay: RNA sequencing of NEO2734 treated cells; format: cell-based; details: 0.5 μM NEO2734 for 1 week; PC9, TFK, EGI and Hep1
Procedure: RNA sequencing was performed on PC9, Hep1, EGI and TFK cells treated with 0.5 μM NEO2734 for 1 week. The expression changes of cFLIP and TNFRSF10B (DR5) were plotted.
To investigate the mechanism of this synergy effect from this drug combination, RNA sequencing was performed on NEO2734 treated cells (using four independent cell models PC9, TFK, EGI and Hep1) to identify genes that might be critical for the DR5 signaling pathway. […] This might explain why BRD2 inhibition may enhance the responsiveness of conatumumab.

[5] = tested on: A549 lung cancer cells; assay: Tumor growth of A549 xenografts in Balb/c nude mice; format: in vivo; details: A549 xenograft; 30 mg/kg alisertib oral gavage, 10 μg conatumumab intraperitoneal, week days
Procedure: (§1) FIG. 4: (A) Tumor growth of Hep1 parental cells in the flanks of Balb/c nude mice subcutaneously injected with 1*10^7 cells. When tumors reached approximately 200 mm^3, assigned to either control, 30 mg/kg alisertib (oral gavage), 5 μg conatumumab (intraperitoneal injection) and the combination. The drugs were administrated during week days and suspended during the weekend. (B) Tumor growth of A549 parental cells in the flanks of Balb/c nude mice subcutaneously injected with 5*10^6 cells. When tumors reached approximately 200 mm3, assigned to either control, 30 mg/kg alisertib (oral gavage), 10 μg conatumumab (intraperitoneal injection) and the combination. The drugs were administrated during week days and suspended during the weekend. (C-E) Cell viability was assessed by colony formation assay in the A549 and Hep1 cells. The cells were firstly treated with different senescence inducers for 7 days to induce senescence. Afterwards, the senescent cells were suspended from the senescence inducers then re-seeded in a 12-well plate and switched to conatumumab or Lz-TRAIL treatment for 5 days. Proliferating cells were taken as a control. At the end of assay, cells were fixed, stained, and photographed.
(§2) To test the treatment in vivo, we engrafted Hep1 liver cancer cells and A549 lung cancer cells into immunodeficient nude mice. […]

[6] = tested on: Hep1 liver cancer cells; assay: Tumor growth of Hep1 xenografts in Balb/c nude mice; format: in vivo; details: Hep1 xenograft; 30 mg/kg alisertib oral gavage, 5 μg conatumumab intraperitoneal, week days
Procedure: as §1, §2

[7] = tested on: TNFRSF10B (DR5), DR4; assay: RNA sequencing of a senescent cell line panel, death receptor expression; format: cell-based; details: data not shown
Procedure: RNA sequencing was performed on A549 cells treated with 0.5 alisertib μM for 1 week, and followed by gene set enrichment analysis (GSEA) of alisertib treated cells versus untreated control for multiple independent NF-KB signaling gene sets. (B) Real-time PCR analysis of DR4, DR5, cFLIP, TRAIL in A549 cells treated with 0.5 μM alisertib, 100 nM CFI-400945 and 2 μM Etoposide. GAPDH served as control.

[8] = tested on: senescent cells; assay: Killing of senescent cells by conatumumab in vitro, time; format: cell-based
[9] = tested on: senescent A549 and Hep1 cells; assay: Colony formation of A549 and Hep1 cells made senescent with other senescence inducers; format: cell-based; details: A549 and Hep1 made senescent with PLk4 inhibitor, etoposide and barasertib; treatment 5 days
Procedure: as §1

[10] = tested on: PC9, Hep1 and A549; details: 0.5 microgram/ml conatumumab
Procedure: FIG. 7: (A) Cell viability for the BRD2 inhibitor iBET in the presence of 0.5 microgram/ml conatumumab. […] Cells were seeded into 384 well plates. Drugs were added after 24 hours. Cell viability was measured using cell titer blue after 96 hours of drug treatment.

## CC1(C)CCC(c2ccc(Cl)cc2)=C(CN2CCN(c3ccc(C(=O)NS(=O)(=O)c4ccc(N[C@H](CCN5CCOCC5)CSc5ccccc5)c(S(=O)(=O)C(F)(F)F)c4)cc3)CC2)C1 [ABT-263]
[1]; alisertib-induced senescent cells, 12-well plate
  senolytic effect in cell line panel (colony formation), TRAIL compared with ABT-263: resistant

## Cc1cc(-c2ccc3nc(C4CCOCC4)n(CCOC(F)(F)F)c3c2)cn(C)c1=O [NEO2734, 1,3-dimethyl-5-[2-(oxan-4-yl)-3-[2-(trifluoromethoxy)ethyl]benzimidazol-5-yl]pyridin-2-one]
[2]; alisertib-induced senescent and proliferating A549 (1 μg/ml conatumumab) and Hep1 (0.125 μg/ml conatumumab)
  effect on senolytic effect of DR5 activation (colony formation): improve the senolytic effect of DR5 activation
[3]; BJ and Rpe1 primary cells
  effect on conatumumab responsiveness in primary cells (cell viability): not in primary cells
[3]; cancer cells
  effect on conatumumab responsiveness in cancer cells (cell viability): enhance the conatumumab responsiveness
[4]
  cFLIP (CFLAR) expression change: highly down-regulated

## COc1cc(Nc2ncc3c(n2)-c2ccc(Cl)cc2C(c2c(F)cccc2OC)=NC3)ccc1C(=O)O [alisertib, 4-[[9-chloro-7-(2-fluoro-6-methoxyphenyl)-5H-pyrimido[5,4-d][2]benzazepin-2-yl]amino]-2-methoxybenzoic acid]
[5]
  tumor growth: limited tumor growth inhibition
[6]
  tumor growth: limited tumor growth inhibition
[7]
  DR4 expression in induced senescent cells: not DR4
  TNFRSF10B (DR5) expression in induced senescent cells: upregulated

## COc1cc([C@@H]2c3cc4c(cc3[C@@H](O[C@@H]3O[C@@H]5CO[C@@H](C)O[C@H]5[C@H](O)[C@H]3O)[C@H]3COC(=O)[C@H]23)OCO4)cc(OC)c1O [etoposide, (5S,5aR,8aR,9R)-5-[[(2R,4aR,6R,7R,8R,8aS)-7,8-dihydroxy-2-methyl-4,4a,6,7,8,8a-hexahydropyrano[3,2-d][1,3]dioxin-6-yl]oxy]-9-(4-hydroxy-3,5-dimethoxyphenyl)-5a,6,8a,9-tetrahydro-5H-[2]benzofuro[6,5-f][1,3]benzodioxol-8-one]
[7]
  DR4 expression in induced senescent cells: not DR4
  TNFRSF10B (DR5) expression in induced senescent cells: upregulated

## conatumumab: DR5 agonistic IgG1 antibody; purchased from Creative Biolabs, or generated by expression of SEQ 1 and SEQ 3
[5]
  tumor growth: limited tumor growth inhibition
[6]
  tumor growth: limited tumor growth inhibition
[1]; alisertib 0.5 μM 7 days induced senescence, treatment 120 hrs, lung, breast, colon and liver cancer models
  killing of senescent versus proliferating cells (cell viability): selective killing of senescent cells
[2]; A549, titration
  dosage that will not lead to a significant impact on alisertib induced senescent cells: 1 µg/mL
[2]; Hep1, titration
  dosage that will not lead to a significant impact on alisertib induced senescent cells: 0.125 µg/mL
[8]
  time in which senescent cells are killed: 24 h
[9]
  senolytic effect (colony formation): strong senolytic effect

## iBET
[10]
  effect on conatumumab responsiveness (cell viability): efficiently enhance the responsiveness of conatumumab
